# Measured values from article PMC11162475, “Rule-based omics mining reveals antimicrobial macrocyclic peptides against drug-resistant clinical isolates” (Nature Communications, 2024).
# Tests used:
# [1] = test system: tested gram-positive pathogens, including vancomycin intermediate-resistant strains; format: cell-based; settings: 20 h
# Procedure: (§1) For MIC determination, Staphylococcus aureus ATCC25923, Bacillus subtilis 168, Micrococcus luteus DSM1790, Enterococcus faecalis OG1RF, Enterococcus faecium MCC2763, Escherichia coli DH5α and Pseudomonas aeruginosa PAO1 were used as indicator strains. Nisin and vancomycin were used as positive controls. A dilution series of massatide A, massatide B, vancomycin (16, 8, 4, 2, 1, 0.5, 0.25, 0.125, 0.0625, 0.0313 μg/mL) and sistertide A1, kebanetide A1, kebanetide A2, nisin (64, 32, 16, 8, 4, 2, 1, 0.5, 0.25, 0.125 μg/mL) were prepared in 96-well plate from 1–10th column. The indicator strains were added to the compound-containing well. The indicator strain culture with no antibiotics was prepared in the 11th column. The 12th column was filled with 200 μL empty MHB medium. The 96-well plate was incubated at 37 °C for 20 h (30 °C for M. luteus and B. subtilis). The OD600 was detected on MULTISKAN Sky (Thermo Scientific) and MIC values were determined. The MIC values of clinical isolates were determined by Sichuan Primed Shines Bio-tech Co., Ltd. (China) following similar protocol. Levofloxacin was used as a positive control.
# Escherichia coli DH5α = format: cell-based; settings: DH5α, 20 h
# Procedure: as §1
# [2] = test system: Pseudomonas aeruginosa PAO1; format: cell-based; settings: PAO1, 20 h
# Procedure: as §1
# [3] = Mammalian cytotoxicity, CCK-8 assay; format: cell-based; settings: human
# Procedure: Bioactivity assay of the crude extract
# Protease stability of massatide A
# Thermal stability of massatide A […]
# and 1% penicillin -streptomycin. […]
# and CO 2-controllable incubator with 5% CO 2. All the cell experiments were performed […]
# Cell viability was determined by the CCK -8 assay. HeLa and Hek -293T cells were […]
# µg/ml. At the end of the fixed incubation period (24 h), cells were washed with PBS to remove excess compound. We added 100 µl fresh medium and 10 µl CCK-8 reagent.
# After 2 h incubation at 37°C, absorbance at 450 nm was recorded using a microplate reader. All experiments were performed in triplicate (n=3 independent experiments).
# Growth kinetics of S. aureus
# Massatide A or B was prepared in a 96-well plate at the concentration of 8×MIC, 4×MIC, 2×MIC, 1×MIC and 0.5×MIC , respectively. The MHB medium with no compound was used as a control. Then, the overnight culture of S. aureus ATCC 25923 cells was added to the medium at 1:1,000. The plate was incubated with shaking in SpectraMax iD3 (MOLECULAR DEVICES) at 30 ℃. OD600 was measured every 30 min for 36 hours. To analyze the lysis, 1mL of S. aureus ATCC 25923 culture (OD600 1.0) was treated with massatide A or vancomycin (10×MIC) for 24h. An untreated sample was used as a negative control.
# (§2) Time-dependent killing assay
# (§3) An overnight culture of S. aureus ATCC 25923 cells was diluted at 1:10,000 in MHB medium and incubated at 37 ℃, 200 rpm for 2 hours to reach the early exponential.
# (§4) Then, massatide A or vancomycin was added to the culture at the concentration of 10×MIC. Bacteria were still cultivated at 37 ℃, 200 rpm. Culture with no antibiotics was used as a negative control. 10 μL aliquots were removed at intervals, centrifuged, and resuspended in 1 ml PBS. Serially diluted (10-fold) suspensions were plated on MHB agar and incubated at 37 ℃ overnight for counting of colony-forming units.
# Experiments were performed in triplicate.
# Sequential culturing of S. aureus ATCC 25923 was performed in the presence of a subinhibitory concentration of massatide A to observe whether the resistance developed. […]
# [4] = 300 μl of water added to 0.9 mg solid; visual, not quantitative
# S. aureus ATCC 25923 = assay: Time-dependent killing assay; format: cell-based, Staphylococcus aureus; settings: for log(CFU/mL) / CFU/mL: time-killing assay
# Procedure: as §2, §3, §4
# Experiments were performed in triplicate. […]
# [5] = test system: Staphylococcus aureus ATCC25923; assay: Kirby-Bauer assay, zone of inhibition (agar well); format: cell-based; settings: S. aureus ATCC25923; 10 μL of 3.2 mg/mL DMSO stock in well of soft LB agar, 37 °C, 20 h
# Procedure: The stock solution of massatide A (1) and B (1a) 3.2 mg/mL were prepared in DMSO. 40 μL overnight culture of Micrococcus luteus DSM1790 was added to 20 mL soft Luria-Bertani agar (1% agar), and then poured into a plate. 10 μL tip was used to make two wells on the plate. 10 μL massatide A (1) or B (1a) solution was added in one of the wells, while in the other well, 10 μL DMSO was added as a negative control. The plates were incubated at 30 °C for 20 h to observe the zone of inhibition. Staphylococcus aureus ATCC25923 was also used to observe the inhibition zone using a similar method. The only difference is incubating at 37 °C. Stock solutions of sistertide A1, kebanetide A1 and A2 were 3.2 mg/mL, 1.6 mg/mL and 1.6 mg/mL, respectively. The method to observe the activity of these compounds individually was the same as that of massatide.
smiles,measurement,setting,value
"C/C=C1\NC(=O)C(N(C)C)C(C)SC[C@@H](C(=O)N[C@H](CC)C(=O)N[C@H](C(=O)N[C@@H](C)C(=O)N[C@H](C)C(=O)N[C@@H](Cc2ccccc2)C(=O)N[C@@H](C)C(=O)NC2C(=O)NCC(=O)N[C@@H](Cc3ccc(O)cc3)C(=O)N[C@@H](Cc3ccccc3)C(=O)N[C@H](C)C(=O)N/C=C\SC2C)C(C)C)NC(=O)[C@@H]2CCCN2C(=O)[C@H](C(C)C)NC1=O (some centres unmarked) [Massatide A (1), massatide A]",MIC (potency) against tested gram-positive pathogens,[1],below 4 μg/mL
same,MIC,Escherichia coli DH5α,>128 µg/mL
same,MIC,[2],>128 µg/mL
same,IC50 at 24 h,[3],136 µg/mL
same,water solubility (observation),[4],not fully dissolved
same,"time-dependent killing, mode of killing","S. aureus ATCC 25923; S. aureus, early exponential phase, 10×MIC, 37 °C, c.f.u. counting, triplicate",bactericidal
same,log(CFU/mL),"S. aureus ATCC 25923; time 0 h, log of mean of 3 replicates",6.553 log(CFU/mL)
same,CFU/mL,"S. aureus ATCC 25923; time 0 h, mean of 3 replicates",3576667 CFU/mL
same,CFU/mL,"S. aureus ATCC 25923; time 0 h, replicate 1",2840000 CFU/mL
same,log(CFU/mL),"S. aureus ATCC 25923; time 0 h, replicate 1",6.453 log(CFU/mL)
same,CFU/mL,"S. aureus ATCC 25923; time 0 h, replicate 2",4020000 CFU/mL
same,log(CFU/mL),"S. aureus ATCC 25923; time 0 h, replicate 2",6.604 log(CFU/mL)
same,CFU/mL,"S. aureus ATCC 25923; time 0 h, replicate 3",3870000 CFU/mL
same,log(CFU/mL),"S. aureus ATCC 25923; time 0 h, replicate 3",6.588 log(CFU/mL)
same,log(CFU/mL),"S. aureus ATCC 25923; time 1 h, log of mean of 3 replicates",4.699 log(CFU/mL)
same,CFU/mL,"S. aureus ATCC 25923; time 1 h, mean of 3 replicates",50000 CFU/mL
same,CFU/mL,"S. aureus ATCC 25923; time 1 h, replicate 1",70000 CFU/mL
same,log(CFU/mL),"S. aureus ATCC 25923; time 1 h, replicate 1",4.8451 log(CFU/mL)
same,CFU/mL,"S. aureus ATCC 25923; time 1 h, replicate 2",50000 CFU/mL
same,log(CFU/mL),"S. aureus ATCC 25923; time 1 h, replicate 2",4.699 log(CFU/mL)
same,CFU/mL,"S. aureus ATCC 25923; time 1 h, replicate 3",30000 CFU/mL
same,log(CFU/mL),"S. aureus ATCC 25923; time 1 h, replicate 3",4.477 log(CFU/mL)
same,log(CFU/mL),"S. aureus ATCC 25923; time 3 h, log of mean of 3 replicates",4.176 log(CFU/mL)
same,CFU/mL,"S. aureus ATCC 25923; time 3 h, mean of 3 replicates",15000 CFU/mL
same,CFU/mL,"S. aureus ATCC 25923; time 3 h, replicate 1",10000 CFU/mL
same,log(CFU/mL),"S. aureus ATCC 25923; time 3 h, replicate 1",4 log(CFU/mL)
same,CFU/mL,"S. aureus ATCC 25923; time 3 h, replicate 2",20000 CFU/mL
same,log(CFU/mL),"S. aureus ATCC 25923; time 3 h, replicate 2",4.301 log(CFU/mL)
same,CFU/mL,"S. aureus ATCC 25923; time 3 h, replicate 3",15000 CFU/mL
same,log(CFU/mL),"S. aureus ATCC 25923; time 3 h, replicate 3",4.176 log(CFU/mL)
same,log(CFU/mL),"S. aureus ATCC 25923; time 7 h, log of mean of 3 replicates",3.921 log(CFU/mL)
same,CFU/mL,"S. aureus ATCC 25923; time 7 h, mean of 3 replicates",8333.33 CFU/mL
same,CFU/mL,"S. aureus ATCC 25923; time 7 h, replicate 1",5000 CFU/mL
same,log(CFU/mL),"S. aureus ATCC 25923; time 7 h, replicate 1",3.699 log(CFU/mL)
same,CFU/mL,"S. aureus ATCC 25923; time 7 h, replicate 2",10000 CFU/mL
same,log(CFU/mL),"S. aureus ATCC 25923; time 7 h, replicate 2",4 log(CFU/mL)
same,CFU/mL,"S. aureus ATCC 25923; time 7 h, replicate 3",10000 CFU/mL
same,log(CFU/mL),"S. aureus ATCC 25923; time 7 h, replicate 3",4 log(CFU/mL)
same,log(CFU/mL),"S. aureus ATCC 25923; time 26 h, log of mean of 3 replicates",2.049 log(CFU/mL)
same,CFU/mL,"S. aureus ATCC 25923; time 26 h, mean of 3 replicates",112 CFU/mL
same,CFU/mL,"S. aureus ATCC 25923; time 26 h, replicate 1",70 CFU/mL
same,log(CFU/mL),"S. aureus ATCC 25923; time 26 h, replicate 1",1.8451 log(CFU/mL)
same,CFU/mL,"S. aureus ATCC 25923; time 26 h, replicate 2",120 CFU/mL
same,log(CFU/mL),"S. aureus ATCC 25923; time 26 h, replicate 2",2.079 log(CFU/mL)
same,CFU/mL,"S. aureus ATCC 25923; time 26 h, replicate 3",146 CFU/mL
same,log(CFU/mL),"S. aureus ATCC 25923; time 26 h, replicate 3",2.164 log(CFU/mL)
same,inhibitory activity (zone of inhibition),[5],strong inhibitory activity
